Laboratory results published in patent US20220281848A1, “PYRAZOLE-SUBSTITUTED PYRROLIDINONES AS HERBICIDES” (FMC Corporation, priority 2019, published 2022).

System: plants
Assay: Test D pre-emergence, other plants of Tables D1 and D3
Assay type: in vivo
Conditions: preemergent, 20 DAA
Summary of the method: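 Seeds treated with herbicide safener; sown in soil; glasshouse, 16 h light, 65% humidity. Sprayed day 1 (pre) or ~day 12 (post). Spray in 0.2% v/v adjuvant. Scored 0–100 damage: 20 DAA pre, 15 d post.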

CN1CC(c2cc(C(F)(F)F)n(C)n2)C(C(=O)Nc2ccc(F)nc2F)C1=O (racemic) [Compound 22]
damage to plant (100=total damage to plant; 0=no damage to plant), ABUTH (rate 15): 0
damage to plant (100=total damage to plant; 0=no damage to plant), ABUTH (rate 30): 0
damage to plant (100=total damage to plant; 0=no damage to plant), ABUTH (rate 60): 0
damage to plant (100=total damage to plant; 0=no damage to plant), ABUTH (rate 130): 0
damage to plant (100=total damage to plant; 0=no damage to plant), ABUTH (rate 250): 0
damage to plant (100=total damage to plant; 0=no damage to plant), ABUTH (rate 500): 0
damage to plant (100=total damage to plant; 0=no damage to plant), AMARE (rate 15): 0
damage to plant (100=total damage to plant; 0=no damage to plant), AMARE (rate 30): 0
damage to plant (100=total damage to plant; 0=no damage to plant), AMARE (rate 60): 0
damage to plant (100=total damage to plant; 0=no damage to plant), AMARE (rate 130): 0
damage to plant (100=total damage to plant; 0=no damage to plant), AMARE (rate 250): 0
damage to plant (100=total damage to plant; 0=no damage to plant), AMARE (rate 500): 0
damage to plant (100=total damage to plant; 0=no damage to plant), BIDPI (rate 15): 0
damage to plant (100=total damage to plant; 0=no damage to plant), BIDPI (rate 30): 0
damage to plant (100=total damage to plant; 0=no damage to plant), BIDPI (rate 60): 0
damage to plant (100=total damage to plant; 0=no damage to plant), BIDPI (rate 130): 0
damage to plant (100=total damage to plant; 0=no damage to plant), BIDPI (rate 250): 0
damage to plant (100=total damage to plant; 0=no damage to plant), BIDPI (rate 500): 0
damage to plant (100=total damage to plant; 0=no damage to plant), BRAPL (rate 15): 0
damage to plant (100=total damage to plant; 0=no damage to plant), BRAPL (rate 30): 20
damage to plant (100=total damage to plant; 0=no damage to plant), BRAPL (rate 60): 70
damage to plant (100=total damage to plant; 0=no damage to plant), BRAPL (rate 130): 80
damage to plant (100=total damage to plant; 0=no damage to plant), BRAPL (rate 250): 90
damage to plant (100=total damage to plant; 0=no damage to plant), BRAPL (rate 500): 90
damage to plant (100=total damage to plant; 0=no damage to plant), CYPES (rate 15): 0
damage to plant (100=total damage to plant; 0=no damage to plant), CYPES (rate 30): 0
damage to plant (100=total damage to plant; 0=no damage to plant), CYPES (rate 60): 0
damage to plant (100=total damage to plant; 0=no damage to plant), CYPES (rate 130): 0
damage to plant (100=total damage to plant; 0=no damage to plant), CYPES (rate 250): 0
damage to plant (100=total damage to plant; 0=no damage to plant), CYPES (rate 500): 0
damage to plant (100=total damage to plant; 0=no damage to plant), DIGSA (rate 15): 0
damage to plant (100=total damage to plant; 0=no damage to plant), DIGSA (rate 30): 20
damage to plant (100=total damage to plant; 0=no damage to plant), DIGSA (rate 60): 80
damage to plant (100=total damage to plant; 0=no damage to plant), DIGSA (rate 130): 80
damage to plant (100=total damage to plant; 0=no damage to plant), DIGSA (rate 250): 100
damage to plant (100=total damage to plant; 0=no damage to plant), DIGSA (rate 500): 100
damage to plant (100=total damage to plant; 0=no damage to plant), ECHCG (rate 15): 0
damage to plant (100=total damage to plant; 0=no damage to plant), ECHCG (rate 30): 0
damage to plant (100=total damage to plant; 0=no damage to plant), ECHCG (rate 60): 60
damage to plant (100=total damage to plant; 0=no damage to plant), ECHCG (rate 130): 80
damage to plant (100=total damage to plant; 0=no damage to plant), ECHCG (rate 250): 90
damage to plant (100=total damage to plant; 0=no damage to plant), ECHCG (rate 500): 100
damage to plant (100=total damage to plant; 0=no damage to plant), ELEIN (rate 15): 0
damage to plant (100=total damage to plant; 0=no damage to plant), ELEIN (rate 30): 0
damage to plant (100=total damage to plant; 0=no damage to plant), ELEIN (rate 60): 0
damage to plant (100=total damage to plant; 0=no damage to plant), ELEIN (rate 130): 0
damage to plant (100=total damage to plant; 0=no damage to plant), ELEIN (rate 250): 0
damage to plant (100=total damage to plant; 0=no damage to plant), ELEIN (rate 500): 0
damage to plant (100=total damage to plant; 0=no damage to plant), EPHHL (rate 15): 0
damage to plant (100=total damage to plant; 0=no damage to plant), EPHHL (rate 30): 0
damage to plant (100=total damage to plant; 0=no damage to plant), EPHHL (rate 60): 0
damage to plant (100=total damage to plant; 0=no damage to plant), EPHHL (rate 130): 0
damage to plant (100=total damage to plant; 0=no damage to plant), EPHHL (rate 250): 0
damage to plant (100=total damage to plant; 0=no damage to plant), EPHHL (rate 500): 0
damage to plant (100=total damage to plant; 0=no damage to plant), GLXMA (rate 15): 0
damage to plant (100=total damage to plant; 0=no damage to plant), GLXMA (rate 30): 0
damage to plant (100=total damage to plant; 0=no damage to plant), GLXMA (rate 60): 0
damage to plant (100=total damage to plant; 0=no damage to plant), GLXMA (rate 130): 0
damage to plant (100=total damage to plant; 0=no damage to plant), GLXMA (rate 250): 0
damage to plant (100=total damage to plant; 0=no damage to plant), GLXMA (rate 500): 0
damage to plant (100=total damage to plant; 0=no damage to plant), IPOHE (rate 15): 0
damage to plant (100=total damage to plant; 0=no damage to plant), IPOHE (rate 30): 0
damage to plant (100=total damage to plant; 0=no damage to plant), IPOHE (rate 60): 0
damage to plant (100=total damage to plant; 0=no damage to plant), IPOHE (rate 130): 0
damage to plant (100=total damage to plant; 0=no damage to plant), IPOHE (rate 250): 0
damage to plant (100=total damage to plant; 0=no damage to plant), IPOHE (rate 500): 0
damage to plant (100=total damage to plant; 0=no damage to plant), ORYSA (rate 15): 0
damage to plant (100=total damage to plant; 0=no damage to plant), ORYSA (rate 30): 0
damage to plant (100=total damage to plant; 0=no damage to plant), ORYSA (rate 60): 0
damage to plant (100=total damage to plant; 0=no damage to plant), ORYSA (rate 130): 0
damage to plant (100=total damage to plant; 0=no damage to plant), ORYSA (rate 250): 0
damage to plant (100=total damage to plant; 0=no damage to plant), ORYSA (rate 500): 0
damage to plant (100=total damage to plant; 0=no damage to plant), PANMI (rate 15): 0
damage to plant (100=total damage to plant; 0=no damage to plant), PANMI (rate 30): 0
damage to plant (100=total damage to plant; 0=no damage to plant), PANMI (rate 60): 0
damage to plant (100=total damage to plant; 0=no damage to plant), PANMI (rate 130): 0
damage to plant (100=total damage to plant; 0=no damage to plant), PANMI (rate 250): 0
damage to plant (100=total damage to plant; 0=no damage to plant), PANMI (rate 500): 0
damage to plant (100=total damage to plant; 0=no damage to plant), SETFA (rate 15): 0
damage to plant (100=total damage to plant; 0=no damage to plant), SETFA (rate 30): 0
damage to plant (100=total damage to plant; 0=no damage to plant), SETFA (rate 60): 0
damage to plant (100=total damage to plant; 0=no damage to plant), SETFA (rate 130): 30
damage to plant (100=total damage to plant; 0=no damage to plant), SETFA (rate 250): 60
damage to plant (100=total damage to plant; 0=no damage to plant), SETFA (rate 500): 90
damage to plant (100=total damage to plant; 0=no damage to plant), SORVU (rate 15): 0
damage to plant (100=total damage to plant; 0=no damage to plant), SORVU (rate 30): 0
damage to plant (100=total damage to plant; 0=no damage to plant), SORVU (rate 60): 0
damage to plant (100=total damage to plant; 0=no damage to plant), SORVU (rate 130): 0
damage to plant (100=total damage to plant; 0=no damage to plant), SORVU (rate 250): 0
damage to plant (100=total damage to plant; 0=no damage to plant), SORVU (rate 500): 0
